Results as given in patent US11160794B2, “Methods for treating congenital disorders of glycosylation” (Maggie's Pearl, LLC, priority 2018, dated 2021).

Columns and labels:
[1] = tested on: Pmm-2 F119L homozygous animals; assay: Chemical stressor exposure of Pmm-2 mutant worms in liquid culture; format: in vivo, nematode (worms); conditions: increasing concentrations
Source text: Because an underlying defect in glycosylation may be manifested when subjected to external chemical stressors, Pmm-2 F119L homozygous animals were subjected to Tunicamycin and Bortezomib drug exposures. Tunicamycin is an inhibitor of N-linked glycosylation and Bortezomib (Bzb) is an irreversible inhibitor of the proteasome. It was contemplated that either or both drugs would affect the Pmm-2 mutants differently compared to wild type (“WT”).

[2] = tested on: SEC53 variant (pmm2 mutant) yeast; assay: Yeast growth rescue of SEC53 variant strains (validation of drug screen hits); format: cell-based; conditions: for growth rescue/improvement: maximum dose/effect
Procedure: All strains used herein are in S288c background. Strains were grown in Synthetic Complete (“SC”) or SC drop out media (Sunrise)+2% dextrose at 30° C. unless otherwise noted. Standard genetic procedures of transformation and tetrad analysis were followed to construct strains. SEC53 rescue plasmid (pPL1) was generated by cloning the SEC53 promoter, open reading frame, and terminator sequences into the episomal pRS316 containing the URA3 selectable marker. SEC53 variants were generated by cloning the relevant promoter, GFP or SEC53 gene, and CYC1 terminator sequences into an integrating plasmid containing the LEU2 selectable marker and integrated at the SwaI restriction site into the HO locus. For PMM2 variants, the SEC53 ORF was replaced with a codon-optimized PMM2. Plasmids were generated by Next Interactions or GenScript. Strains were generated by Next Interactions or well-known techniques.
Cells from plates were resuspended in SC media to OD600=1.0, then serial diluted into 50 μL SC+FOA media in 384-well plates at 10^−1, 10^−2, and 10^−3. Plates were incubated at 30° C. and absorbance reading at […] were measured by a plate reader (Molecular Devices SpectraMax M3) at the indicated time points. Plates were vortexed briefly to resuspend cells prior to plate readings. 5-floroortic acid was purchased from US Biological and used at a concentration of 1 mg/L.
125 nL of compounds or DMSO were dispensed into 384-well plates using the Echo acoustic dispenser (LabCyte) to achieve a final concentration of 25 μM. 50 μL of 10^−2 dilution of an OD600=1.0 or 0.5 yeast cell suspensions were dispensed into the 384-well plates containing compounds or DMSO with a MultiFlo automated dispenser (Biotek). Plates were covered and incubated at 30° C. for 16-21 hours until OD600 reaches ˜0.8. Plates were vortexed briefly to resuspend cells prior to reading.
MicroSource Spectrum compounds were reordered from MicroSource Discovery Systems and resuspended in DMSO. 5-125 nL compounds or DMSO were dispensed into 384-well plates and 50 μL of yeast cell suspensions or media were dispensed by multichannel pipettes to achieve the desired concentration. Plates were covered and incubated at 30° C. for 16-23 hours until OD600 reaches ˜0.8. Plates were vortexed briefly to resuspend cells prior to plate readings.
pACT1-F126L, pSEC53-V238M, and pSEC53-F126L haploids and pACT1-F126L/pACT1-R148H, pSEC53-V238M/pSEC53-R148H, and pSEC53-F126L/pSEC53-R148H heterozygous diploids were advanced to a high-throughput drug screen. Screening was done in a 2,560 compound MicroSource Spectrum library collection consisting of FDA approved drugs, bioactive tool compounds, and natural products. Each strain was screened in duplicate and in 384-well plates, with each plate containing 32 wells of the negative control (no drugs) and 24 wells of the positive controls (wild type cells). […] Additionally, there is good correlation between replicates (correlation >0.4 for all panels). With a Z-score cutoff of 2.0, we initially identified six compounds that may be promising and their ability to rescue growth is conserved between the haploid and diploid strains.
These initial hits were further studied for validation. […] At the maximum dose tested, alpha-cyano-4-hydroxycinnamic acid (Compound 1) rescues the F126L allele by 17.7% in haploid and 24.5% in diploid cells.

[3] = tested on: PMM2; assay: PMM2 enzymatic assay on lysates of compound-treated fibroblasts; format: cell-based, human; conditions: for effect on PMM2 enzymatic activity: human fibroblasts GM20942 (F119L/R148H as printed), 10 and 15 μM, 24 and 48 hours; for PMM2 enzyme activity: above described cell models
Procedure: Cells (WT and PMM2 (GM20942-R141H/F119L) compound heterozygous fibroblasts) were seeded at 45 cells/μL (48 hours) and 60 cells/μL (24 hours) in 96 well plates. Compounds were added while seeding cells. The cells were incubated with the tested compounds for 24 and 48 hours (2 different plates, at 10 and 15 μM). Cells were washed twice with phosphate buffer solution. Cell extracts were prepared by adding 10 μL homogenization buffer (20 mM Hepes, 25 mM KCl, 1 mM dithiothreitol, 10 μg/mL each leupeptin and antipain) into each well. The plate was frozen at −80° C. and thawed (this step was repeated two times). Contents of the well were then transferred to the next well, frozen, and thawed. The previous two steps were repeated again to obtain 3× protein. The plate was centrifuged at 4000 rpm for 10 min. 1 μL of sample was taken for Qubit protein quantification, and assay buffer was added into these wells. The plate was incubated at 37° C., and readings were taken every 30 mins.
PMM2 enzymatic activities were assayed spectrophotometrically at 340 nm by the reduction of NADP+ to NADPH in a reaction mixture incubated at 30° C. for 60 mins in a 96-well plate. Cell lysates were added to 200 μL volume in the following reaction: 50 mM HEPES, pH 7.1, 5 mM MgCl2, 0.5 mM NADP+, 10 μg/mL yeast glucose-6-phosphate dehydrogenase, 20 μM glucose 1,6-bisphosphate, 200 μM mannose 1-phosphate, 10 μg/mL phosphoglucose isomerase, and […]. Glucose 1,6-bisphosphate was used as an activator of PMM2 activity. NADPH formation was calculated from absorbance at 340 nm using the Beer's Law (absorbance=εLc).
A PMM2 enzymatic assay was performed to determine whether the expression level of the variants correlate with the enzymatic activity in the cell. To do this, phosphomannose mutase (PMM) activity was assayed by measuring the reduction of NADP+ to NADPH spectrophotometrically at 340 nm with a plate reader according to methods known in the art. This is achieved by a series of four reactions shown in Scheme 1.
Mannose-1-phosphate and NADP are provided as substrates for the reactions along with phosphomannose isomerase, phosphoglucose isomerase, glucose-6-phosphoate dehydrogenase, and PMM2 from the protein lysate. Additionally, glucose 1,6-bisphosphate is used as an activator of PMM2 activity.
To determine whether these compounds rescue growth by increasing PMM2 enzymatic activity, human fibroblast cells (GM20942) containing the F119L/R148H heterozygous mutations and wild type fibroblast cells were treated with each compound. The cell lysates were subjected to the PMM2 enzymatic reaction.

[4] = pACT1-F126L/R148H heterozygous diploid cells

| Molecule | growth of Pmm-2 mutants compared to wild type under drug exposure [1] | growth rescue/improvement ([2]; pACT1-F126L haploid cells) [%] | growth rescue/improvement [2, 4] [%] | effect on PMM2 enzymatic activity [3] | PMM2 enzyme activity [3] | further results |
| --- | --- | --- | --- | --- | --- | --- |
| CC(C)C[C@H](NC(=O)[C@H](Cc1ccccc1)NC(=O)c1cnccn1)B(O)O [Bzb, Bortezomib] | delayed growth |  |  |  |  |  |
| N#C/C(=C\c1ccc(O)cc1)C(=O)O [Compound 1, α-cyano-4-hydroxycinnamic acid] |  | 17.7 | 24.5 | rescues the enzymatic activity |  | rescue of growth of SEC53 alleles ([2]; haploid and heterozygous diploid cells, dose response): consistent and dose-dependent rescues |
| CNc1ccccc1C(=O)N1CCc2c([nH]c3ccccc23)C1=O [rhetsinine, Rhetsinine] |  |  |  |  | increase PMM2 enzyme activity |  |
| Cc1ccc(C(=O)Nc2ccc(S(=O)(=O)O)c3cc(S(=O)(=O)O)cc(S(=O)(=O)O)c23)cc1NC(=O)c1cccc(NC(=O)Nc2cccc(C(=O)Nc3cc(C(=O)Nc4ccc(S(=O)(=O)O)c5cc(S(=O)(=O)O)cc(S(=O)(=O)O)c45)ccc3C)c2)c1 [suramin hexasodium] |  | 6.7 | 22.6 | no discernible effect |  | growth improvement ([2]; pSEC53-F126L haploid cells): 24.5%; growth improvement ([2]; pSEC53-F126L/R148H heterozygous diploid cells): 47.4%; growth improvement ([2]; pSEC53-V238M haploid cells): 16.1%; growth improvement ([2]; pSEC53-V238M/R148H heterozygous diploid cells): 38.9% |
| Epalrestat [reference compound] |  |  |  |  | increase PMM2 enzyme activity | rescue of yeast growth defect ([2]; above described cell models): rescued yeast growth defect |
| Tunicamycin | no major differences in growth |  |  |  |  |  |
